What follows are compounds tested against SSTR4 (Homo sapiens (Human), UniProt P31391) (assay: Inhibition of forskolin stimulated cAMP in CHO-K1 cells overexpressing SSTR4). Settings: not given.
Assay type: cell-based
Protocol: Inhibition of Forskolin Stimulated cAMP in Cells Overexpressing SSTR4
This cell-based assay measures the ability of compounds to inhibit forskolin stimulated cAMP in CHO-K1 cells overexpressing SSTR4. CHO-K1 cells overexpressing SSTR4 (CHO-SSTR4) are purchased from DiscoveRx (product code 95-0059C2). The CHO-SSTR4 cells are maintained in F12K media with 10% Fetal Bovine Serum (Hyclone), 1% Pen/Strep (Life Technologies), and 800 μg/mL G418 (Life Technologies). […] The next day, the culture media is removed from the cells and the cells are washed (added then removed) with Kreb's Ringer Buffer (ZenBio, KRB-1000 mL). […] The cells are incubated in […] for 30 minutes at room temperature. Cellular cAMP levels are detected with a HTRF LANCE Ultra cAMP kit (Perkin Elmer, catalog number TRF0264).
The assay is performed in accordance with the manufacturer's instructions. Five μL of diluted Eu-W8044 labeled streptavidin (dilution: 1:50 in cAMP Detection Buffer) is added to each well. Then 5 μL of diluted biotin cAMP (dilution: 1:150 in cAMP Detection Buffer) is added to each well. The plates are covered and allowed to incubate for 60 minutes at room temperature on a shaker. […] The pEC50 values are generated using Activity Base for Screening Data Management.

SSTR4, sequence (P31391 whole entry): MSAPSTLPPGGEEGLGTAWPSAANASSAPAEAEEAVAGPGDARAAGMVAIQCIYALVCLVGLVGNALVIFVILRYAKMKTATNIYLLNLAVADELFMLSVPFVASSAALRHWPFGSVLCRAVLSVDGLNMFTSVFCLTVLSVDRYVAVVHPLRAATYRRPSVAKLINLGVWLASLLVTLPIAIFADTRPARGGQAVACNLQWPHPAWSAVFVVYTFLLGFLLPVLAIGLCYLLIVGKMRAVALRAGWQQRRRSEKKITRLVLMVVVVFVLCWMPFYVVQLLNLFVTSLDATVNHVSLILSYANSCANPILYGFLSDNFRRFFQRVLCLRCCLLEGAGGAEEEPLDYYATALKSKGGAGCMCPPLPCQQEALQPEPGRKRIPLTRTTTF

Row | SSTR4 Activity pEC50 | SMILES
1 | 6.9 | Cc1cccnc1OCC(F)(F)C(=O)N[C@@H]1CCN(C)[C@H](C)C1 [Example 205, N-((2R,4R)-1,2-dimethylpiperidin-4-yl)-2,2-difluoro-3-((3-methylpyridin-2-yl)oxy)propanamide]
2 | 6.6 | Cc1cnc(OCC(C)(C)C(=O)N[C@H]2CCN(C)C[C@@H]2F)c(C)c1 [Example 122, 3-((3,5-dimethylpyridin-2-yl)oxy)-N-((3S,4S)-3-fluoro-1-methylpiperidin-4-yl)-2,2-dimethylpropanamide]
3 | 8.2 | O=C(N[C@H]1CCNC[C@@H]1F)C(F)(F)COc1ncccc1C1CC1 [Example 198, 3-((3-cyclopropylpyridin-2-yl)oxy)-2,2-difluoro-N-((3S,4S)-3-fluoropiperidin-4-yl)propanamide]
4 | 6.2 | CN1CCC(NC(=O)C(C)(C)COc2ncccc2C(F)(F)F)C(F)(F)C1 (stereo not shown) [Example 118, N-(3,3-difluoro-1-methylpiperidin-4-yl)-2,2-dimethyl-3-((3-(trifluoromethyl)pyridin-2-yl)oxy)propanamide]
5 | 7.0 | CN1CCC(NC(=O)C(C)(C)COc2ncccc2OC(F)(F)F)CC12CC2 (stereo not shown) [Example 174, 2,2-dimethyl-N-(4-methyl-4-azaspiro[2.5]octan-7-yl)-3-((3-(trifluoromethoxy)pyridin-2-yl)oxy)propanamide]
6 | 6.3 | CN1CCC(NC(=O)C(C)(C)COc2ncccc2F)CC1 [Example 39, 3-((3-fluoropyridin-2-yl)oxy)-2,2-dimethyl-N-(1-methylpiperidin-4-yl)propanamide]
7 | 6.2 | CC[C@H]1CN(C)CC[C@@H]1NC(=O)C(C)(C)COc1ncccc1C(F)(F)F [Example 145, N-((3S,4S)-3-ethyl-1-methylpiperidin-4-yl)-2,2-dimethyl-3-((3-(trifluoromethyl)pyridin-2-yl)oxy)propanamide]
8 | 6.8 | CN1CCC(NC(=O)C2(COc3ncccc3C3CC3)CCC2)CC1 [Example 89, 1-(((3-cyclopropylpyridin-2-yl)oxy)methyl)-N-(1-methylpiperidin-4-yl)cyclobutane-1-carboxamide]
9 | 8.9 | C[C@H]1CN(C)CC[C@@H]1NC(=O)C(C)(C)COc1ccccc1Cl [Example 193, 3-(2-chlorophenoxy)-N-((3S,4S)-1,3-dimethylpiperidin-4-yl)-2,2-dimethylpropanamide]
10 | 7.0 | Cc1cnc(OCC(C)(C)C(=O)NC2CCN(C)CC2)c(Cl)c1 [Example 82, 3-((3-chloro-5-methylpyridin-2-yl)oxy)-2,2-dimethyl-N-(1-methylpiperidin-4-yl)propanamide]
11 | 7.3 | CCc1cccnc1OCC(C)(C)C(=O)N[C@@H]1CCN(C)C1 [Example 86, (R)-3-((3-ethylpyridin-2-yl)oxy)-2,2-dimethyl-N-(1-methylpyrrolidin-3-yl)propanamide]
12 | 6.4 | CN1CCC(NC(=O)C(C)(C)COc2ccc(F)cc2)CC1 [Example 204, 3-(4-fluorophenoxy)-2,2-dimethyl-N-(1-methylpiperidin-4-yl)propanamide]
13 | 5.8 | Cc1cccnc1OCC1(C(=O)NC2CCN(C)CC2)CC1 [Example 63, N-(1-methylpiperidin-4-yl)-1-(((3-methylpyridin-2-yl)oxy)methyl)cyclopropane-1-carboxamide]
14 | 5.8 | CN1CCC(NC(=O)C(C)(C)COc2ncc(F)cc2Cl)CC1 [Example 45, 3-((3-chloro-5-fluoropyridin-2-yl)oxy)-2,2-dimethyl-N-(1-methylpiperidin-4-yl)propanamide]
15 | 7.1 | CN1CCC(NC(=O)C(C)(C)COc2cccc(F)c2)CC1 [Example 203, 3-(3-fluorophenoxy)-2,2-dimethyl-N-(1-methylpiperidin-4-yl)propanamide]
16 | 5.8 | Cc1cnc(OCC(C)(C)C(=O)N[C@H]2CCN(C)C[C@H]2C)c(C)c1 (relative stereo) [Example 32, cis-N-(1,3-dimethylpiperidin-4-yl)-3-((3,5-dimethylpyridin-2-yl)oxy)-2,2-dimethylpropanamide]
17 | 7.2 | CN1CCC(NC(=O)C(C)(C)COc2cnccc2C(F)(F)F)CC1 [Example 42, 2,2-dimethyl-N-(1-methylpiperidin-4-yl)-3-((4-(trifluoromethyl)pyridin-3-yl)oxy)propanamide]
18 | 6.8 | Cc1ccc(C2CC2)c(OCC(C)(C)C(=O)N[C@@H]2CCN(C)C2)n1 [Example 10, (R)-3-((3-cyclopropyl-6-methylpyridin-2-yl)oxy)-2,2-dimethyl-N-(1-methylpyrrolidin-3-yl)propanamide]
19 | 6.8 | Cc1cc(Cl)cnc1OCC(C)(C)C(=O)NC1CCN(C)CC1 [Example 48, 3-((5-chloro-3-methylpyridin-2-yl)oxy)-2,2-dimethyl-N-(1-methylpiperidin-4-yl)propanamide]
20 | 7.9 | CCc1ccccc1OCC(C)(C)C(=O)NC1CN(C)CC1c1ccccc1 (stereo not shown) [Example 97, 3-(2-ethylphenoxy)-2,2-dimethyl-N-(1-methyl-4-phenylpyrrolidin-3-yl)propanamide]
21 | 6.4 | Cc1cccc(C#N)c1OCC(C)(C)C(=O)NC1CCN(C)CC1 [Example 77, 3-(2-cyano-6-methylphenoxy)-2,2-dimethyl-N-(1-methylpiperidin-4-yl)propanamide]
22 | 6.8 | CN1CC[C@@H](NC(=O)C(C)(C)COc2ncccc2OC(F)(F)F)[C@H](c2ccccc2)C1 (relative stereo) [Example 167, 2,2-dimethyl-N-(trans-1-methyl-3-phenylpiperidin-4-yl)-3-((3-(trifluoromethoxy)pyridin-2-yl)oxy)propanamide]
23 | 7.1 | Cc1ccc(C2CC2)c(OCC(C)(C)C(=O)NC2CCN(C)CC2)n1 [Example 9, 3-((3-cyclopropyl-6-methylpyridin-2-yl)oxy)-2,2-dimethyl-N-(1-methylpiperidin-4-yl)propanamide]
24 | 6.1 | Cc1cc(C#N)cnc1OCC(C)(C)C(=O)NC1CCN(C)CC1 [Example 51, 3-((5-cyano-3-methylpyridin-2-yl)oxy)-2,2-dimethyl-N-(1-methylpiperidin-4-yl)propanamide]

Row | SMILES | SSTR4 Activity pEC50
25 | Cc1ccnc(OCC(C)(C)C(=O)NC2CCN(C)CC2)c1C [Example 88, 3-((3,4-dimethylpyridin-2-yl)oxy)-2,2-dimethyl-N-(1-methylpiperidin-4-yl)propanamide] | 6.6
26 | CN1CCC(NC(=O)C(C)(C)COc2ncccc2C(F)(F)F)C(Cl)C1 (stereo not shown) [Example 120, N-(3-chloro-1-methylpiperidin-4-yl)-2,2-dimethyl-3-((3-(trifluoromethyl)pyridin-2-yl)oxy)propanamide] | 5.9

Same assay, conditions: read-out: SSTR4 Activity pEC50 (converted)

Row | EC50 | SMILES
27 | 31.6 nM | Cc1cccnc1OCC(C)(C)C(=O)N[C@@H]1CN(C)C[C@H]1c1ccc(Cl)cc1 (relative stereo) [Example 55, trans-N-(4-(4-chlorophenyl)-1-methylpyrrolidin-3-yl)-2,2-dimethyl-3-((3-methylpyridin-2-yl)oxy)propanamide]
28 | 79.4 nM | CCO[C@@H]1CN(C)C[C@H]1NC(=O)C(C)(C)COc1ccccc1CC (relative stereo) [Example 95, trans-N-(4-ethoxy-1-methylpyrrolidin-3-yl)-3-(2-ethylphenoxy)-2,2-dimethylpropanamide]
29 | 31.6 nM | CN1C[C@@H](NC(=O)C(C)(C)COc2ncccc2C(F)(F)F)[C@H](c2ccc(C(F)(F)F)nc2)C1 (relative stereo) [Example 59, trans-2,2-dimethyl-N-(1-methyl-4-(6-(trifluoromethyl)pyridin-3-yl)pyrrolidin-3-yl)-3-((3-(trifluoromethyl)pyridin-2-yl)oxy)propanamide]
30 | 25.1 nM | C[C@H]1C[C@H](NC(=O)C(C)(C)COc2ncccc2OC(F)(F)F)CCN1C (relative stereo) [Example 135, trans-N-(1,2-dimethylpiperidin-4-yl)-2,2-dimethyl-3-((3-(trifluoromethoxy)pyridin-2-yl)oxy)propanamide]
31 | 79.4 nM | Cc1ccc([C@@H]2CN(C)C[C@H]2NC(=O)C(C)(C)COc2ncccc2C)cn1 (relative stereo) [Example 60, trans-2,2-dimethyl-N-(1-methyl-4-(6-methylpyridin-3-yl)pyrrolidin-3-yl)-3-((3-methylpyridin-2-yl)oxy)propanamide]
32 | 251 nM | Cc1cnc(OCC(C)(C)C(=O)N[C@@H]2CN(C)C[C@H]2C)c(C)c1 (relative stereo) [Example 183, 3-((3,5-dimethylpyridin-2-yl)oxy)-N-(trans-1,4-dimethylpyrrolidin-3-yl)-2,2-dimethylpropanamide]
33 | 631 nM | C[C@H]1C[C@H](NC(=O)C(C)(C)COc2ncccc2C(F)(F)F)CN1C (relative stereo) [Example 133, trans-N-(1,5-dimethylpyrrolidin-3-yl)-2,2-dimethyl-3-((3-(trifluoromethyl)pyridin-2-yl)oxy)propanamide]
34 | 79.4 nM | CN1CCC(NC(=O)C(C)(C)COc2cccnc2C(F)(F)F)CC1 [Example 52, 2,2-dimethyl-N-(1-methylpiperidin-4-yl)-3-((2-(trifluoromethyl)pyridin-3-yl)oxy)propanamide]

— patent US11045457B2, “Piperidinyl-3-(aryloxy)propanamides and propanoates” (priority 2018, dated 2021)
